This note sets out measurements from patent US20230255966A1, “A COMBINATION OF A CBP/P300 BROMODOMAIN INHIBITOR AND AN EGFR INHIBITOR FOR USE IN TREATING EGFR-MUTANT NSCLC” (TOLREMO THERAPEUTICS AG, priority 2020, published 2023).

Structures are written as SMILES. A value given as a limit tells only on which side of the number the result lay.

Assay [1] concerns HCC827 cells. Kind of assay: Label-free determination of cell proliferation (CELIGO). Format: cell-based. The following applies: 21 days (FIG. 9).
Assay [2] deals with T1, BRD1 (Homo sapiens, UniProt O95696).
T1 construct: T7 phage strains displaying bromodomains were grown in parallel; purchased DiscoverX; host or cells: T7 phage in E. coli host derived from BL21
T1 sequence (O95696 562-666 limits assumed): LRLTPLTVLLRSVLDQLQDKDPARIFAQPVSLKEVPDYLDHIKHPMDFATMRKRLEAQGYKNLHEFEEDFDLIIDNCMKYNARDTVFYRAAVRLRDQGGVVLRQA
The assay is described as follows: BROMOscan BromoKdMAX. Format: binding. Here is the method:
(§1) A BromoKdMAX was performed at DiscoverX.
(§2) The assay principle is the following: BROMOscan™ is a novel industry leading platform for identifying small molecule bromodomain inhibitors. Based on proven KINOMEscan™ technology, BRO-MOscan™ employs a proprietary ligand binding site-directed competition assay to quantitatively measure interactions between test compounds and bromodomains. This robust and reliable assay panel is suitable for high throughput screening and delivers quantitative ligand binding data to facilitate the identification and optimization of potent and selective small molecule bromodomain inhibitors.
(§3) The assay was conducted as follows: For the Bromodomain assays, T7 phage strains displaying bromodomains were grown in parallel in 24-well blocks in an E. coli host derived from the BL21 strain. E. coli were grown to log-phase and infected with T7 phage from a frozen stock (multiplicity of infection=0.4) and incubated with shaking at 32° C. until lysis (90-150 minutes). The lysates were centrifuged (5,000×g) and filtered (0.2 μm) to remove cell debris. […] The liganded beads were blocked with excess biotin and washed with blocking buffer (SeaBlock (Pierce), 1% BSA, 0.05% Tween 20, 1 mM DTT) to remove unbound ligand and to reduce non-specific phage binding. […] Test compounds were prepared as 1000× stocks in 100% DMSO. Kds were determined using an 11-point 3-fold compound dilution series with one DMSO control point. […] The compounds were then diluted directly into the assays such that the final concentration of DMSO was 0.09%. All reactions performed in polypropylene 384-well plates. Each was a final volume of 0.02 ml. […] The bromodomain concentration in the eluates was measured by qPCR.

Assay [3] has as its target T2, GCN5L2 (Homo sapiens, UniProt Q92830).
T2 construct: T7 phage strains displaying bromodomains were grown in parallel; purchased DiscoverX (BROMOscan / BromoKdMAX service); host or cells: T7 phage in E. coli host derived from BL21
Kind of assay: BROMOscan BromoKdMAX. Format: binding. The protocol:
as §1, §2, §3

The target in assay [4] is T3, FALZ (Homo sapiens, UniProt Q12830).
T3 construct: T7 phage strains displaying bromodomains were grown in parallel; purchased DiscoverX (BROMOscan / BromoKdMAX service); host or cells: T7 phage in E. coli host derived from BL21
The assay is described as follows: BROMOscan BromoKdMAX. Format: binding. The protocol:
as §1, §2, §3

The target in assay [5] is T4, ATAD2A (Homo sapiens, UniProt Q6PL18).
T4 construct: T7 phage strains displaying bromodomains were grown in parallel; purchased DiscoverX; host or cells: T7 phage in E. coli host derived from BL21
T4 sequence (Q6PL18 980-1092 limits assumed): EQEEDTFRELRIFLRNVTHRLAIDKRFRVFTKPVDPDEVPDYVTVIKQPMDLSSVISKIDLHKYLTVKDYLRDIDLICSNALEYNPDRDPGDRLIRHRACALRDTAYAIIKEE
The assay is described as follows: BROMOscan BromoKdMAX. Format: binding. Here is the method:
as §1, §2, §3

Assay [6] has as its target T5, PBRM1(5) (Homo sapiens, UniProt Q86U86).
T5 construct: T7 phage strains displaying bromodomains were grown in parallel; purchased DiscoverX (BROMOscan / BromoKdMAX service); host or cells: T7 phage in E. coli host derived from BL21
The assay is described as follows: BROMOscan BromoKdMAX. Format: binding. The protocol:
as §1, §2, §3

Assay [7] has as its target T6, BRPF3 (Homo sapiens, UniProt Q9ULD4).
T6 construct: T7 phage strains displaying bromodomains were grown in parallel; purchased DiscoverX; host or cells: T7 phage in E. coli host derived from BL21
Kind of assay: BROMOscan BromoKdMAX. Format: binding. The protocol:
as §1, §2, §3

The target of assay [8] is T7, SMARCA2 (Homo sapiens, UniProt P51531).
T7 construct: T7 phage strains displaying bromodomains were grown in parallel; purchased DiscoverX (BROMOscan / BromoKdMAX service); host or cells: T7 phage in E. coli host derived from BL21
T7 sequence (P51531 1378-1506 limits assumed): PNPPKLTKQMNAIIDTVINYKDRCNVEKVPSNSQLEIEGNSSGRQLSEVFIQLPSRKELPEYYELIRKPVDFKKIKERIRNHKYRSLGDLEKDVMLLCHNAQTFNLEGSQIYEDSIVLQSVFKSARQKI
The assay is described as follows: BROMOscan BromoKdMAX. Format: binding. Here is the method:
as §1, §2, §3

Assay [9] deals with T8, BAZ2B (Homo sapiens, UniProt Q9UIF8).
T8 construct: T7 phage strains displaying bromodomains were grown in parallel; purchased DiscoverX; host or cells: T7 phage in E. coli host derived from BL21
T8 sequence (Q9UIF8 2060-2164 limits assumed): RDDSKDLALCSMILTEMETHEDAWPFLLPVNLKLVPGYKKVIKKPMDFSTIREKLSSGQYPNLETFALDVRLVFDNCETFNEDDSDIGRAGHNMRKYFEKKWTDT
Kind of assay: BROMOscan BromoKdMAX. Format: binding. The protocol: as §1, §2, §3

Assay [10] addresses T9, SMARCA4 (Homo sapiens, UniProt P51532).
T9 construct: T7 phage strains displaying bromodomains were grown in parallel; purchased DiscoverX (BROMOscan / BromoKdMAX service); host or cells: T7 phage in E. coli host derived from BL21
Kind of assay: BROMOscan BromoKdMAX. Format: binding. The protocol:
as §1, §2, §3

Assay [11] concerns the target T10, BAZ2A (Homo sapiens, UniProt Q9UIF9).
T10 construct: T7 phage strains displaying bromodomains were grown in parallel; purchased DiscoverX; host or cells: T7 phage in E. coli host derived from BL21
Kind of assay: BROMOscan BromoKdMAX. Format: binding. The protocol:
as §1, §2, §3

Assay [12] deals with T11, PBRM1(2) (Homo sapiens, UniProt Q86U86).
T11 construct: T7 phage strains displaying bromodomains were grown in parallel; purchased DiscoverX (BROMOscan / BromoKdMAX service); host or cells: T7 phage in E. coli host derived from BL21
T11 sequence (Q86U86 177-287 limits assumed): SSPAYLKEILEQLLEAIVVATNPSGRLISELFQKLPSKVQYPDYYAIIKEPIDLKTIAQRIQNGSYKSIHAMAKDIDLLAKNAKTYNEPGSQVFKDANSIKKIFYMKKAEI
The assay is described as follows: BROMOscan BromoKdMAX. Format: binding. The protocol:
as §1, §2, §3

Assay [13] addresses T12, TRIM33(PHD, Bromo.) (Homo sapiens, UniProt Q9UPN9).
T12 construct: TRIM33(PHD, Bromo.)
Kind of assay: BROMOscan BromoKdMAX. Format: binding. Here is the method:
as §1, §2, §3

Assay [14] addresses T13, ATAD2B (Homo sapiens, UniProt Q9ULI0).
T13 construct: T7 phage strains displaying bromodomains were grown in parallel; purchased DiscoverX; host or cells: T7 phage in E. coli host derived from BL21
Kind of assay: BROMOscan BromoKdMAX. Format: binding. The protocol:
as §1, §2, §3

Assay [15] has as its system HCC4006 cells. The assay is described as follows: Label-free determination of cell proliferation (CELIGO). As to conditions: 21 days (FIG. 10).
Protocol: 2000 HCC4006 (ATCC; CRL2871) were seeded into 96 well plates (Greiner BioOne 655090) one day prior to drug treatment in RPMI medium containing 10% FCS and 2 mM L-Glutamine. The next day wells were imaged label-free using brightfield imaging on a CELIGO Image Cytometer to determine the initial cell number. Subsequently cells were treated with either DMSO, with single drugs (osimertinib and each of the CBP/p300 bromodomain inhibitors) or drug combinations of 100 nM osimertinib and one CBP/p300 bromodomain inhibitor with drug concentrations given below. Plates were regularly imaged over weeks using brightfield mode (CELIGO Imaging Cytometer) to track cell proliferation in each well over time. Growth medium and treatments were replenished twice weekly. […] Cell numbers were determined using CELIGO software's built-in “direct cell counting” analysis tool in the brightfield mode.
For assay [16], the system named is NCI-H1975 xenografts. The assay is described as follows: NCI-H1975 xenograft tumor growth. Format: in vivo, NMRI-Nude mice. Here is the method: Tumor volume was measured using a manual caliper two to three times a week. The tumor volume was calculated using the formula: lager tumor diameter x square of the smaller tumor diameter divided by 2. Based on a linear fit of the mean tumor volumes the slopes of the curves were compared by regression analysis (two-tailed).
The response was determined by comparing tumor volume change at time t to its baseline: % tumor volume change=ΔVolt=100%×((Vt−Vinitial)/Vinitial). The Best Response was the minimum value of ΔVolt for t≥10 d. For each time t, the average of ΔVolt from t=0 to t was also calculated. The BestAvgResponse is defined as the minimum value of this average for t≥10 d. This metric captures a combination of speed, strength and durability of response into a single value. […] Mice that were sacrificed because of an adverse event before they had completed 14 d on trial were removed from the data set.
The response was determined by comparing tumor volume change at time t to its baseline: % tumor volume change=ΔVolt=100%×((Vt−Vinitial)/Vinitial). The Best Response was the minimum value of ΔVolt for t≥6 d. For each time t, the average of ΔVolt from t=0 to t was also calculated. The BestAvgResponse is defined as the minimum value of this average for t≥10 d. This metric captures a combination of speed, strength and durability of response into a single value. […] Mice that were sacrificed because of an adverse event before they had completed 14 d on trial were removed from the data set.

In assay [17] the test system is NCI-H1975 cells. Kind of assay: Gene expression analysis (qPCR of ALPP and HOPX). As to conditions: NCI-H1975, 1 μM CBP/p300 inhibitor in presence of 20 nM osimertinib, 24 h. Format: cell-based. The protocol:
(§4) Equal amount of cDNA was then subjected to qPCR analysis using the Kapa SYBR fast kit (KK4611) in a 384 well format in a Roche Light Cycler 480. Gene expression of genes was evaluated by subtraction of housekeeping gene CT-values (b-Actin) from CT of the genes of interest, and by calculating the ΔΔCT by subtracting the DMSO control value from sample of interest to finally calculate fold change differences of treated versus control treated sample.
(§5) Data is from 2 independent experiments with qPCRs in duplicate (mean±SEM) (FIG. 1C-D).

For assay [18], the system named is HCC827 cells. The assay is described as follows: Gene expression analysis (qPCR of ALPP and HOPX). Format: cell-based. As to conditions: HCC827, 1 μM CBP/p300 inhibitor in presence of Gefitinib, 24 h. The protocol:
as §4, §5
On the technique in general: In qPCR the cycle at which signal appears reflects the starting amount.

T12 sequence (Q9UPN9 whole entry): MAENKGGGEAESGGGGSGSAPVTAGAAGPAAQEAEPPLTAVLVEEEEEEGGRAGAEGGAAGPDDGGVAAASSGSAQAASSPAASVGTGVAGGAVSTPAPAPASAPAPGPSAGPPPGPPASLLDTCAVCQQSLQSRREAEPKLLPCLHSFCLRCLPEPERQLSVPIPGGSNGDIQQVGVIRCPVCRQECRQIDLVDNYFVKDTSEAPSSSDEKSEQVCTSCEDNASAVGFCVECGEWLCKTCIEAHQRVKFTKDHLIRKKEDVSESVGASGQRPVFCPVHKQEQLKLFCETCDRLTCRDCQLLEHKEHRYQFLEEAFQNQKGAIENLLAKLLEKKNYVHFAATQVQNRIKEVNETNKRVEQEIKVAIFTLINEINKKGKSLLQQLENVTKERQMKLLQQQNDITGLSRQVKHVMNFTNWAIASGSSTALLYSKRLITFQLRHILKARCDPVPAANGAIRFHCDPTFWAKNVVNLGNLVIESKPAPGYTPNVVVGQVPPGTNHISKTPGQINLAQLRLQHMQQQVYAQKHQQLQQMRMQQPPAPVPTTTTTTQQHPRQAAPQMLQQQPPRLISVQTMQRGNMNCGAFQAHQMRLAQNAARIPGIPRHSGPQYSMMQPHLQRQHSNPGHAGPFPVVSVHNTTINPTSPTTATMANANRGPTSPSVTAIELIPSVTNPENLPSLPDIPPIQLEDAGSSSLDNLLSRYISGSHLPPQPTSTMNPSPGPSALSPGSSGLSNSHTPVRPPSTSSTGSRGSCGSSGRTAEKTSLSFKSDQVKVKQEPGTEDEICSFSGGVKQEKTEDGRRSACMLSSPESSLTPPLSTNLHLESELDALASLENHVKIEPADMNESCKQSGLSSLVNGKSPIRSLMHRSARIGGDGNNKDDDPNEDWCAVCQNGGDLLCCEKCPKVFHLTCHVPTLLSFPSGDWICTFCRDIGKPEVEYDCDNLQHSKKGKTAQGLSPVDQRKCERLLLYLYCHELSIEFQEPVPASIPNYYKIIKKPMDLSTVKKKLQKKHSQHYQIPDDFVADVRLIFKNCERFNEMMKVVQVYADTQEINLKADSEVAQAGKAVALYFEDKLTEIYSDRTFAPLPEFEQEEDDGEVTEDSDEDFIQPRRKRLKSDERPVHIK
T6 sequence (Q9ULD4 589-693 limits assumed): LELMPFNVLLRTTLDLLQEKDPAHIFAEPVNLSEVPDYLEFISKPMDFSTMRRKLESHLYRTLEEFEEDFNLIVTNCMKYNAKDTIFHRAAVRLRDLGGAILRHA
T5 sequence (Q86U86 653-763 limits assumed): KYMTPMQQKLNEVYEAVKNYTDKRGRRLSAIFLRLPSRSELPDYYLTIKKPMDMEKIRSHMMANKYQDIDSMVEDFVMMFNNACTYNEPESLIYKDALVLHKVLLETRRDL
T9 sequence (P51532 1453-1564 limits assumed): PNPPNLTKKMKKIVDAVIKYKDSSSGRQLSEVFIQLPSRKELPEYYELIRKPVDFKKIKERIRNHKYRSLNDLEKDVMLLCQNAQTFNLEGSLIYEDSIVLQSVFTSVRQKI
T10 sequence (Q9UIF9 1793-1897 limits assumed): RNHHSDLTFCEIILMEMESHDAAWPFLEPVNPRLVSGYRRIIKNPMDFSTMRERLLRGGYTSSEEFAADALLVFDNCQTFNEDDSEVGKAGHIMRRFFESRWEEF
T2 sequence (Q92830 728-832 limits assumed): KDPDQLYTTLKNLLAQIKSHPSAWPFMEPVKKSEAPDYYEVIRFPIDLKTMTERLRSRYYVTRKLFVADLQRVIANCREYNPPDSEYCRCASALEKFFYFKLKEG
T13 sequence (Q9ULI0 951-1066 limits assumed): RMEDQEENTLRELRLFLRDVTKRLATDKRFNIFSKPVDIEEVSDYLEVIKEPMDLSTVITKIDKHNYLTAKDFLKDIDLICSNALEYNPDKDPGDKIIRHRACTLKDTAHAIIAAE

Broadly, the Kd is the free concentration of one partner at which half of the binding sites on the other are occupied at equilibrium, for simple one-to-one binding. As for `CO[C@H]1CC[C@H](n2c([C@@H]3CCCC(=O)N3c3ccc(F)c(F)c3)nc3cc(-c4c(C)noc4C)ccc32)CC1` [CCS1477], the “Development of drug resistance / re-growth” value in assay [1] (HCC827, combined with 100 nM osimertinib) is listed as “prevent the development of drug resistance”; in [15] (HCC4006, combined with 100 nM osimertinib), “prevent the development of drug resistance”. The “Effect on cell proliferation on their own” value is on record as “do not affect cell proliferation” in assay [1] (HCC827, single agent (1 μM Compound A, 0.2 μM Compound C, 0.2 μM CCS1477, 1 μM FT-6876, 0.2 μM GNE-781)) and “do not affect cell proliferation” in assay [15] (HCC4006, single agent (1 μM Compound A, 0.2 μM Compound C, 0.2 μM CCS1477, 1 μM FT-6876, 0.2 μM GNE-781)). For the same compound, the Kd in assay [2] is > 10 µM; in [3], > 10 µM; in assay [4], 5.5 µM; in [5], > 10 µM; in [6], 3.1 µM; in assay [7], > 10 µM. For the same compound, the equilibrium dissociation constant (Kd) in assay [8], in assay [9], in assay [10], in [11], in [12] and in assay [13] was > 10 µM in each case. For the same compound, the dissociation constant Kd in assay [14] was > 10 µM. Also, in [16] (2 mg/kg osimertinib in combination with 20 mg/kg CCS1477), the “Response rate to therapy (best average response)” value is listed as “increased response rate”. Besides, the “Tumor growth (slopes of mean tumor volume curves) versus osimertinib group” value in [16] (2 mg/kg osimertinib in combination with 20 mg/kg CCS1477, daily, orally) is reported as “significant difference”. Also, the “Response to therapy (best average response)” value in [16] (20 mg/kg CCS1477 alone) is given as “absence of response”. In addition, in assay [16] (20 mg/kg CCS1477 single agent, daily, orally), the “Tumor growth (slopes of mean tumor volume curves) versus vehicle” value is reported as “No significant difference”. Moreover, the “EGFR inhibitor induced gene expression (ALPP, HOPX)” value in assay [17] and in assay [18] was “reverse EGFR inhibitor induced gene expression” throughout.
